The record followed here is PubChem BioAssay AID720602 (Broad Institute, 2013).

The subject of this assay is LOX IMVI viability, ATP luminescence, 8/24/48 h. As to the kind of experiment: LOX IMVI melanoma cell viability loss, dose response, HRAS target identification, CellTiter-Glo ATP luminescence, 8/24/48 h, dry powder (AID 720602). A general note: Cellular ATP, detected with luciferase, serves as a proxy for viable cell number.

With `Cc1onc(C(=O)N2CCN(C(c3ccc(Cl)cc3)c3ccc(Cl)cc3)CC2)c1[N+](=O)[O-]`, the AC50 – broadly, the concentration at which the activity in the assay is half-maximal – is, setting by setting: (measured here: AC50 at 8 h) 60 nM; (measured here: AC50 at 24 h) 36.6 nM; (measured here: AC50 at 48 h) 499 nM.

Turning to `COc1ccc(N(C(=O)CCl)C(C(=O)NCCc2ccccc2)c2cccs2)cc1Cl` (stereo not given), the AC50 (measured here: AC50 at 8 h) was found to be 21 nM, the AC50 (measured here: AC50 at 24 h) was found to be 25.9 nM and the AC50 (measured here: AC50 at 48 h) amounted to 122 nM.

Consider `CC(C)(C)OC(=O)NCCOCCOCCOc1ccc(N(C(=O)CCl)C(C(=O)NCCc2ccccc2)c2cccs2)cc1Cl` (stereo not given), for which the AC50 runs as follows: (measured here: AC50 at 8 h) 43.5 nM; (measured here: AC50 at 24 h) 34.2 nM; (measured here: AC50 at 48 h) 390 nM.

Regarding `C#CCCCC(=O)NCCOCCOCCOc1ccc(N(C(=O)CCl)C(C(=O)NCCc2ccccc2)c2cccs2)cc1Cl` (stereo not given), the half-maximal activity concentration (AC50) (measured here: AC50 at 8 h) came out at 193 nM, the AC50 (measured here: AC50 at 24 h) turned out to be 146 nM and the AC50 (measured here: AC50 at 48 h) turned out to be 2640 nM.

As for `COC(=O)c1ccc([C@@H]2c3[nH]c4ccccc4c3C[C@@H](C(=O)OC)N2C(=O)CCl)cc1`, the AC50 by setting is: (measured here: AC50 at 8 h) 15.7 nM; (measured here: AC50 at 24 h) 10.1 nM; (measured here: AC50 at 48 h) 187 nM.
